Read-outs that look alike come from different tables or passages of the source.
Key:
VA-13 cells = test: Western blot of p27 in SV40-transformed VA-13 fibroblasts; format: cell-based, human; conditions: 25 μM
Experimental: (§1) Cell Culture, Cell Extract Preparation, and Western Blot Assay. Human leukemia Jurkat T and prostate cancer LNCaP cells were cultured in RPMI 1640 medium supplemented with 10% fetal calf serum, 100 units/ml of penicillin, and 100 μg/ml streptomycin. Human immortalized, non-transformed NK cells (YT cell line) (38) were cultured in RPMI 1640 supplemented with 1 mM MEM sodium pyruvate solution, 0.1 mM MEM non-essential amino acids solution, 10% fetal calf serum. 100 units/ml penicillin, and 100 μg/ml streptomycin. Normal (WI-38) and simian virus 40 (SV40)-transformed (VA-13) human fibroblasts were grown in Dulbecco's modified Eagle's medium supplemented with 10% fetal calf serum, 100 units/ml of penicillin and 100 μg/ml of streptomycin. All cells were maintained at 37° C. in a humidified incubator with an atmosphere of 5% CO2. A whole cell extract was prepared in accordance with An et al. (An, B. et al. Cell Death Differ, 1998, 5:1062-75). Briefly, cells were harvested, washed with PBS twice, and homogenized in a lysis buffer [50 mM Tris-HCl (pH 8.0), 5 mM EDTA, 150 mM NaCl, 0.5% NP-40, 0.5 mM phenylmethylsulfonyl fluoride, and 0.5 mM dithiothreitol] for 30 min at 4° C. Afterwards, lysates were centrifuged at 12,000×g for 15 min at 4° C., and the supernatants were collected as whole cell extracts. Equal amounts of protein extract (60 μg) were resolved by SDS-polyacrylamide gel electrophoresis and transferred to a nitrocellulose membrane using a Semi-Dry Transfer system (BIO-RAD, Hercules, Calif.). Jurkat T, LNCaP, or DU-145 cells were treated with various concentrations of synthetic or natural tea polyphenols for indicted hours. The enhanced chemiluminescence (ECL) Western blot analysis was then performed using specific antibodies to the proteins of interest (p^27kip, IκB-α, PARP, Bax or actin). The ratio of p27 or IκB-α to the corresponding actin was determined by scanning intensities of the protein bands.
Normal WI-38 and SV40-transformed VA-13 cell lines were treated with 25 μM of (−)-EGCG, (−)-EGCG-amide, (+)-EGCG, (+)-EGCG-amide, or GTP-1 for either 12 hours or 36 hours.

Jurkat T cells = test: Western blot of proteasome target proteins in Jurkat T cells; format: cell-based, human; conditions: for increase of IκB-α protein levels: at 6 hours
Experimental: as §1
Immortalized, non-transformed normal natural killer (NK) cells (YT line) (Drexler, H. G. et al. Leuk Res, 2000, 24:881-911) and human leukemic Jurkat T cells (as a control) were treated with either (−)-EGCG (as a comparison) or (−)-EGCG-amide for up to 12 hour. […] In contrast, IκB-α expression in non-transformed NK cells was unchanged during each treatment, although the basal level (and the mobility) of IκB-α protein was higher in NK cells (FIGS. 13A and 13B).
Having discovered that the synthetic GTP analogs are potent and specific inhibitors of the proteasomal chymotrypsin-like activity in vitro (FIGS. 16A, 17A, 17B, and 17C), it was then determined whether the synthetic compounds could also be effective in inhibiting intact tumor cell proteasome activity. Because inhibition of the proteasome activity in tumor cells would result in increased levels of proteasome target proteins, levels of p27 and IκB-α proteins were measured by Western blot assay in Jurkat T cells treated with each GTP. After a 12 hour treatment, (+)-EGCG at 10 μM accumulated p27 and IκB-α levels by 3.5- and 3.1-fold, respectively (FIG. 18A). In comparison, the natural (−)-EGCG accumulated p27 and IκB-α, to a slightly lesser extent, by 2.7- and 2.1-fold, respectively (FIG. 18A). In addition, synthetic (+)-GCG increased p27 and IκB-α levels by 3.7- and 3.3-fold, respectively, similar to the results from (−)-GCG treatment (FIG. 18A).

LNCaP cells = test: Soft agar colony formation assay; format: cell-based, human; conditions: 10 μM, 14 day-incubation
Method in brief: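 2×10^4 human prostate cancer cells seeded in 0.3% top agar over a 0.6% agar layer (DMEM, 10% FBS) together with analogs at 50 μM or 10 μM, or solvent control. Incubated 14 days at 37 °C, 5% CO2, then stained overnight with MTT (1 mg/ml). Colonies counted; means of triplicate independent experiments ± SD.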

purified 20S proteasome = purified 20S proteasome (UniProt Q9P992); test: Inhibition of chymotrypsin-like activity of purified 20S proteasome (source not stated); format: biochemical; set-up: IC50; other: purified 20S proteasome, multiple concentrations; conditions: purified 20S proteasome, multiple concentrations
Experimental: Inhibition of purified 20S proteasome activity by natural or synthetic GTPs. Purified prokaryotic (0.5 μg) or eukaryotic (0.02 μg) 20S proteasome was incubated with 20 μM fluorogenic peptide substrate, Suc-Leu-Leu-Val-Tyr-AMC for 30 min at 37° C. in […] of assay buffer (50 mM Tris-HCl, pH 7.5), with or without a natural or synthetic tea polyphenol. After incubation, production of hydrolyzed 7-amido-4-methyl-coumarin (AMC) groups was measured using a multi-well plate VERSAFLUOR Fluorometer with an excitation filter of 380 nm and an emission filter of 460 nm (BIO-RAD), and a multi-well plate reader Wallac 1420 VICTORTM^2 with an excitation filter of 355 nm and an emission filter of 460 nm (EG&G WALLAC).

Sequence of purified 20S proteasome (Q9P992 whole entry): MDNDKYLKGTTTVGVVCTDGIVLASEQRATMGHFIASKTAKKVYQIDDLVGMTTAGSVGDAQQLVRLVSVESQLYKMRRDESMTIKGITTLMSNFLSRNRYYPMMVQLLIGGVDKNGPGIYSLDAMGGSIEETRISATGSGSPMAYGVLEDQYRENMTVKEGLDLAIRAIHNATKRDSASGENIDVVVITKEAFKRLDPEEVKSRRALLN

| Compound | levels of p27 protein (VA-13 cells; 12 hours) | increase of IκB-α protein levels (Jurkat T cells; treatment up to 12 hour) | inhibition of colony formation (LNCaP cells) | accumulation of IκB-α levels (Jurkat T cells; 10 μM, 12 hour treatment) | accumulation of p27 levels (Jurkat T cells; 10 μM, 12 hour treatment) | increase in IκB-α levels as compared to (−)-EGCG (Jurkat T cells; 10 μM, 12 hour treatment) | increase in p27 levels as compared to (−)-EGCG (Jurkat T cells; 10 μM, 12 hour treatment) | IC50 (purified 20S proteasome; read-out: IC50) | inhibition at 10 µM (LNCaP cells; Homo sapiens, LNCaP, 336 h) | IC50 (purified 20S proteasome) | levels of p27 protein (VA-13 cells; 36 hours) | increase of p27 levels (Jurkat T cells; treatment up to 12 hour) |
| --- | --- | --- | --- | --- | --- | --- | --- | --- | --- | --- | --- | --- |
| O=C(N[C@@H]1Cc2c(O)cc(O)cc2O[C@@H]1c1cc(O)c(O)c(O)c1)c1cc(O)c(O)c(O)c1 [(−)-EGCG-amide, (−)-[2R,3R]-N-[5,7-Dihydroxy-2-(3,4,5-trihydroxyphenyl)-chroman-3-yl]-3,4,5-trihydroxybenzamide] | significantly increased levels of p27 protein | ≤ 8 fold |  |  |  |  |  |  |  |  |  |  |
| O=C(OC1Cc2c(O)cc(O)cc2OC1c1cc(O)c(O)c(O)c1)c1cc(O)c(O)c(O)c1 (single isomer, unassigned; (+)) [(+)-EGCG] | significantly increased levels of p27 protein |  | 99.5% | 3.1 fold | 3.5 fold | 47% | ~30% | 210 nM |  |  |  |  |
| O=C(OC1Cc2c(O)cc(O)cc2OC1c1cc(O)c(O)c(O)c1)c1cc(O)c(O)c(O)c1 (single isomer, unassigned; (+)) [(+)-GCG] |  |  |  | 3.3 fold | 3.7 fold |  |  |  | 91.5% | 410 nM |  |  |
| O=C(O[C@@H]1Cc2c(O)cc(O)cc2O[C@@H]1c1cc(O)c(O)c(O)c1)c1cc(O)c(O)c(O)c1 [(−)-EGCG, (−)-epigallocatechin-3-gallate, reference compound] | significantly increased levels of p27 protein | up to 6 fold | 99.0% | 2.1 fold | 2.7 fold |  |  |  |  |  | accumulated p27 levels | 17 fold |

Source: patent US9399631B2, “Polyphenol proteasome inhibitors, synthesis, and methods of use” (UNIVERSITY OF SOUTH FLORIDA, priority 2003, dated 2016)
